Reference: patent US11492351B2, “MTA-cooperative PRMT5 inhibitors” (Mirati Therapeutics, Inc., priority 2019, dated 2022)

Tests used:
[1] = target: T1, PRMT5/MEP50 complex (Homo sapiens (Human), UniProt O14744); assay: PRMT5:MEP50 FlashPlate Assay (histone H4 peptide, plus and minus MTA); type: biochemical
Protocol: (§1) The PRMT5 inhibitory activity of compounds of the present invention was determined using either a PRMT5:MEP50 FlashPlate Assay (Reaction Biology Corporation) or a PRMT5:MEP50 HotSpot Assay (Reaction Biology Corporation).
1. PRMT5:MEP50 FlashPlate Assay

[2] = target: T1, PRMT5/MEP50 complex; assay: PRMT5:MEP50 HotSpot Assay (full-length histone H2A, plus and minus MTA); type: biochemical
Protocol: as §1
The assay uses recombinant full-length histone H2A as the PRMT5 substrate. […] The reaction was stopped and transferred to filter paper for detection. The amount of tritiated H2A in each sample was determined using a scintillation counter.

[3] = in the absence of MTA, read-out: IC50
[4] = read-out: IC50 + 2 μM MTA, in the presence of 2 μM MTA

T1 sequence (O14744 whole entry): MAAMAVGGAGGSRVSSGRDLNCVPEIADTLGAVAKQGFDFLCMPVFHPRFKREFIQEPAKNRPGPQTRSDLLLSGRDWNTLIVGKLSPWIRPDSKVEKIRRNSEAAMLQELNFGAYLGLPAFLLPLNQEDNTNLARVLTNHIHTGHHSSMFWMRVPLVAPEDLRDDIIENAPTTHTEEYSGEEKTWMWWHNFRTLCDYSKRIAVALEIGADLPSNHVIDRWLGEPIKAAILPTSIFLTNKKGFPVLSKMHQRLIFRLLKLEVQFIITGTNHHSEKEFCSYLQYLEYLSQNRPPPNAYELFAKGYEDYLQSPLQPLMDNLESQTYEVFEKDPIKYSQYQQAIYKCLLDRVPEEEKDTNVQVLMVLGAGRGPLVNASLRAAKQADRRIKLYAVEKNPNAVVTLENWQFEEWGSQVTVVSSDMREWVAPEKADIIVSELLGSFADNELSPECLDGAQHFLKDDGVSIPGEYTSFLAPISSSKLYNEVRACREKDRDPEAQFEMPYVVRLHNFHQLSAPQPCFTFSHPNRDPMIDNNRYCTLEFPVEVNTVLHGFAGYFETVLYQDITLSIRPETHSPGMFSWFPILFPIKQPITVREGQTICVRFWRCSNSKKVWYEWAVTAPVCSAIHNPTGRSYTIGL
T1 sequence (Q9BQA1 whole entry partner): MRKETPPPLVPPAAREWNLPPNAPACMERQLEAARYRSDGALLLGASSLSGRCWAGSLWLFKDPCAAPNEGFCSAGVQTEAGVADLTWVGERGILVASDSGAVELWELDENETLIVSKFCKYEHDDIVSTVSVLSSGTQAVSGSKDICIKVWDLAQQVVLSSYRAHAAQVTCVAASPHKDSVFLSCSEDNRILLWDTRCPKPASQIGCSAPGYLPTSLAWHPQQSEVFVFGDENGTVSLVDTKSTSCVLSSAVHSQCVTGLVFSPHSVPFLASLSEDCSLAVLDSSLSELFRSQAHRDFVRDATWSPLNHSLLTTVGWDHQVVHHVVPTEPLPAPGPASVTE

With `Cc1nc2cncc(-c3ccc4c(=O)[nH]nc(CN)c4c3)c2o1` [Example 4-110, 4-(aminomethyl)-6-(2-methyloxazolo[4,5-c]pyridin-7-yl)phthalazin-1(2H)-one] the IC50 [1, 3] was > 100 µM.

`Cc1cc2c(=O)[nH]nc(CN)c2cc1-c1cncc(C#N)c1` [Example 3-38] gave an IC50 [1, 3] of 4.94 µM and an IC50 [1, 4] of 0.37 µM.

For `Cn1ncc(-c2ccc3c(=O)[nH]nc([C@H](N)C(F)F)c3c2)c1-c1ccc2ccccc2c1C#N` [Example 9-6, 2-[4-[4-[(1S)-1-amino-2,2-difluoro-ethyl]-1-oxo-2H-phthalazin-6-yl]-2-methyl-pyrazol-3-yl]naphthalene-1-carbonitrile], the IC50 [2, 4] was > 10 µM.

In the case of `Cn1ncc(-c2ccc3c(=O)[nH]nc(CN)c3c2)c1-c1ccccc1C#N` [Example 4-100, 2-(4-(4-(aminomethyl)-1-oxo-1,2-dihydrophthalazin-6-yl)-1-methyl-1H-pyrazol-5-yl)benzonitrile], the IC50 [2, 3] is reported as > 10 µM.
